From patent US8741840B2, “BMP-7 for use in treating neointimal hyperplasia” (Washington University, priority 2008, dated 2014)

B1: Noggin: bone morphogenetic protein specific inhibitor (BMP-2 antagonist), from Pepro Tech. (protein, UniProt Q13253 28-232, looked up)
Noggin: QHYLHIRPAPSDNLPLVDLIEHPDPIFDPKEKDLNETLLRSLLGGHYDPGFMATSPPEDRPGGGGGAAGGAEDLAELDQLLRQRPSGAMPSEIKGLEFSEGLAQGKKQRLSKKLRRKLQMWLWSQTFCPVLYAWNDLGSRFWPRYVKVGSCFSKRSCSVPEGMVCKPSKSVHLTVLRWRCQRRGGQRCGWIPIQYPIISECKCSC

How the values were obtained:
[1] = system: LDLR−/− high fat fed mice; assay: Histology of proximal aorta (alizarin red): calcified atherosclerotic plaques; format: in vivo, mouse; details: for size of the atherosclerotic lesions: proximal aorta (FIG. 3); for plaque associated calcium deposition: proximal aorta, alizarin red stain (FIG. 3)
Description: Tissue Preparation: Resected specimens were flash frozen in liquid nitrogen, then divided as follows: the heart, ascending aorta and aortic arch were separated from the descending aorta, and bisected sagittally through the aortic outflow tract. The descending aorta was bisected coronally, approximately halfway along its length. In order to visualize calcification in the tissue sections, Slices (5 μm thick) were cut and stained with von Kossa and Trap staining.
Additional mice were enrolled to the study for qualitative analysis of aortas to quantitate the effects of the treatments, because aortas of the experimental animals were destroyed by the technique of quantifying the aortic calcium content. Vascular calcification was largely aortic atherosclerotic plaque associated (FIG. 3), and punctate calcifications in the tunica media were observed. Panel A: Large lipid laden plaque (between arrows) in proximal aorta of a sham-operated high fat fed LDLR−/− mouse. Thick arrows identify focal calcifications in the base of the plaque. Panel B: A large calcified plaque (between arrows) in the proximal aorta of a CKD high fat fed LDLR−/− mouse. Panel C: A large lipid laden plaque (between arrows) in the proximal aorta of a BMP-7 treated CKD high fat fed LDLR−/− mouse. The stain is alizarin red. Magnification is 400× in A-C.

[2] = Blood tests: serum biochemical parameters in the various groups of animals; format: in vivo, mouse; details: serum; LDLR-/-, fat diet, CKD, 28 weeks post natal; BMP-7 10 μg/kg IP weekly or binder 3% in diet
Procedure: Animals were sacrificed under anesthesia 28 weeks post natal. At the time of sacrifice, blood was taken by intracardiac stab, and the heart and aorta dissected en bloc. The BMP-7 treated group received intraperitoneal injection of BMP-7 10 μg/kg dry weight once weekly in 100 μl vehicle [mannitol (5% w/v), NaAcetate buffer (20 mM, pH 4.0-4.5), sterile water].
Animals were allocated to one of seven CKD high fat fed groups after the second surgery: Other control Groups included LDLR−/− sham operated mice on chow diet, and LDLR−/− mice with CKD on chow diet. C57B16 WT mice fed chow served as the normal benchmark source. […] Group 1 were LDLR−/− mice on the high fat diet sacrificed at 22 weeks. Group 2 were LDLR−/− mice with CKD fed the high fat diet and treated weekly from 22 to 28 weeks with vehicle IP. […] Group 3 was the first treatment group. These were LDLR−/− mice with CKD on high fat diet that received BMP-7 treatment (10 μg/kg IP weekly). Group 4 were LDLR−/− mice with CKD on high fat diet treated with sevelamer CO3 1%. Group 5 were LDLR−/− mice with CKD on high fat diet treated with sevelamer CO3 3%. […] Once the mice were randomized into groups, they were allowed to develop calcification from weeks 14 through weeks 22 post natal. Therapy was initiated at 23 weeks postnatal and continued until week 28 postnatal at which time the mice were examined.
Blood tests: Serum was analyzed on the day of blood draw for blood urea nitrogen [BUN], cholesterol, calcium and phosphate by standard laboratory methods. Before initiation of therapy, blood was obtained through saphenous vein. At the time of sacrifice, blood was obtained through intracardiac stab.

[3] = system: human vascular smooth muscle cells (hVSMC) isolated from atherosclerotic donors; assay: Phosphorus stimulated matrix mineralization (matrix Ca content) in hVSMC cultures; format: cell-based; details: Noggin 10-100 ng/ml added to high phosphorus media (FIG. 6A)
Procedure: (§1) Cell Culture: Human adult aorta were obtained from seven cadaveric organ donors rejected because of atherosclerosis by Mid-America Transplant Services (St. Louis, Mo.) and enzymatically digested to obtain Human Smooth Muscle Cells (HSMC). Medial tissue was separated from the adventia and intima and digested with collagenase type I (Worthington, Lakewood, N.J.) 2 mg/ml for 1 hr, and washed with Hank's balanced salt solution (HBSS). Further digestion followed with collagenase type II 1 mg/ml (Worthington, Lakewood, N.J.) and elastase 0.25 mg/ml (Worthington, Lakewood, N.J.) for 4 hrs. Cell suspensions were washed twice with HBSS and cultured in T-75 flasks for three weeks in a 95%/5% air/CO2 humidified environment at 37° C. The growth medium used was DMEM containing […] glucose (high glucose), 10% fetal bovine serum (FBS, Atlas, Fort Collins, Colo.), 1 mM sodium pyruvate, 100 units/ml Penicillin and […] Streptomycin (Sigma, St Louis, Mo.). Cell purity was assessed by positive immunostaining for α-smooth muscle actin and calponin and for the absence of von Willebrand factor. In all experimental protocols, cells were seeded at 1×10^5 cells/well in six-well plates. Medium was changed on the first day and every third day thereafter. In all cases, cells used were between passages two and five (Table 3).
Induction of Calcification: At the time of confluence, cells were switched to mineralization medium consisting of DMEM supplemented with 1 or 2 mM Pi. For cells exposed to BMP-7 treatment, fresh mineralization medium containing either vehicle (mannitol, acetic acid, acetate) or BMP-7 in vehicle was added at 0.1, 1.0, 10, or 100 ng/ml. The medium was changed every two or three days. […] Calcium content was quantified and normalized to cellular protein as described. (Jono 2000; Moe S. M. et al., Kidney Int 67:2295-2304, 2005)^11;52
In vitro matrix mineralization. […]

[4] = system: hVSMC; assay: RT-PCR of osteoblastic differentiation program genes in hVSMC; format: cell-based, human; details: Noggin 100 ng/ml, high phosphorus media (FIG. 6B)
Procedure: as §1
RT-PCR: RNA was extracted from cell cultures using RNeasy Mini Kits (Qiagen, Valencia, Calif.). Semi-quantitative RT-PCR was conducted using Roche 1st Strand cDNA Synthesis Kit (Indianapolis, Ind.) and PCR kit from Invitrogen (Grand Island, N.Y.) according to manufacturer's instructions using a two-step method. 1 μg of total RNA was reverse transcribed and random primers were added for 60 min at 42° C., prior to PCR. Forward and Reverse primers (Table 4) were added and the reactions subjected to PCR for 20-35 cycles. The number of cycles necessary to amplify cDNA but remain within the exponential amplification range was determined for each primer set. GAPDH was used as internal standard to assess loading. Genomic contamination was assessed by heat inactivation of the reverse transcriptase prior to RT-PCR. Primers were designed using Vector NTI soft ware (Invitrogen, Grand Island, N.Y.) and optimal conditions for each prime pairs were determined (Table 4). A Perkin-Elmer DNA Thermal Cycler was used to perform the reaction. Products were separated on a 2% agarose E-gel (Invitrogen, Grand Island, N.Y.), and visualized with ethidium bromide. The band intensity was analyzed first by scanning the gel on a Typhoon 9410 gel imager (Amersham Biosciences), quantified by using TotalLab software v2003.03 (Nonlinear Dynamics, Durham, N.C.) and normalized for loading by comparison to GAPGH. Negative controls were performed by inactivating the reverse transcriptase by boiling for 5 min prior to RT-PCR to insure that genomic DNA was not amplified.
Stimulation of osteoblastic differentiation through osterix induction. […] Osterix (E) was only weakly expressed in basal culture conditions. Phosphorus stimulated transcription of osterix (E). […] The data in A-E were normalized to the expression level in basal culture conditions and expressed as fold induction, mean±SEM, n=3. In: Principles of Bone Biology, edited by Bilezikian J P et al., New York, Academic Press, 1996, pp 51-67; Hoffmann H M et al., Proc. Nat. […]

| Molecule | size of the atherosclerotic lesions [1] | plaque associated calcium deposition [1] | Phosphorus [2] | matrix mineralization stimulated by phosphorus [3] | phosphorus induced osterix expression [4] |
| --- | --- | --- | --- | --- | --- |
| O=C([O-])[O-].[Ca+2] [CaCO3] | did not decrease the size of the atherosclerotic lesions | diminished plaque associated calcium deposition | – | – | – |
| O=C([O-])[O-].O=C([O-])[O-].O=C([O-])[O-].[La+3].[La+3] [Lanthanum, LaCO3] | did not decrease the size of the atherosclerotic lesions | diminished plaque associated calcium deposition | 9.7 ± .4 mg/dL | – | – |
| B1 | – | – | – | inhibited matrix mineralization stimulated by phosphorus | blocked phosphorus induced osterix expression |
